# From patent publication US20050096323A1, “Diketopiperazine derivatives to inhibit thrombin” (NovoScience Pharma Inc., priority 1999, published 2005)
# Where a name gives a salt, the structure may show the parent alone.
# What was measured:
# [1] = system: SD rats; assay: RT, TT, PT, APTT and FIB in rat plasma after administration; format: in vivo; set-up: FIB (Fibrillation) / RT (Clot Retraction Time) / TT (Thrombin Time): unit not given here
# Method: Blood was taken at 0.5 h and 1.5 h after i.v. injection and at 1 h and 3 h after i.g. and plasma RT,TT,PT,APTT and FIB were determined.
# [2] = system: ICR mice; assay: Acute toxicity, intravenous injection, determination of LD50; format: in vivo; conditions: for Number of deaths: 10 mice
# Excerpt: 1) Determination of LD50 (Tables III and IV): ICR mice, 18 ˜20 g, were divided into five groups, with 10 animals in each group (half male and half female). The ratio of doses between groups was 1:0.85.
# [3] = system: SD rats; assay: Weight of deep vein thrombosis (inferior vena cava thrombi) in rats; format: in vivo, rat; conditions: for Thrombi (mg) Dry weight / Thrombi (mg) Wet weight: 4 hours
# Method: The drug was administered immediately after operation and, 4 hours later, the thrombi were collected and weighted.
# [4] = i.v. 0.25 mg/kg, first time point (0.5 h)
# [5] = i.v. 0.25 mg/kg, second time point (1.5 h)
structure (smiles),measurement,setting,value
"CC1CNc2c(cccc2S(=O)(=O)N2C(=O)C3CC(C)CCN3C(=O)C2CCCNC(=N)N)C1 [NPI1999, (3S,6R,8R)-Bicyclo[4.4.0]-1,4-diaza-3-(3-guanidinopropyl)-4-N-(1,2,3,4-tetrahydro-3-methyl-8-quinolinesulfonyl)-8-methyl-2,5-decanedione, hydrochoride salt]",APTT (Activated Partial Prothromboplastin Time),"[1]; 0.125 mg/kg i.v., 0.5 h",28.0 ± 4.0
same,FIB (Fibrillation),"[1]; 0.125 mg/kg i.v., 0.5 h",4.2 ± 0.9
same,PT (Prothrombin Time),"[1]; 0.125 mg/kg i.v., 0.5 h",25.3 ± 5.8
same,RT (Clot Retraction Time),"[1]; 0.125 mg/kg i.v., 0.5 h",83.7 ± 9.7
same,TT (Thrombin Time),"[1]; 0.125 mg/kg i.v., 0.5 h",53.6 ± 11.1
same,APTT (Activated Partial Prothromboplastin Time),"[1]; 0.125 mg/kg i.v., 1.5 h",28.1 ± 4.6
same,FIB (Fibrillation),"[1]; 0.125 mg/kg i.v., 1.5 h",4.5 ± 1.2
same,PT (Prothrombin Time),"[1]; 0.125 mg/kg i.v., 1.5 h",25.0 ± 7.1
same,RT (Clot Retraction Time),"[1]; 0.125 mg/kg i.v., 1.5 h",60.4 ± 15.9
same,TT (Thrombin Time),"[1]; 0.125 mg/kg i.v., 1.5 h",39.2 ± 12.5
same,APTT (Activated Partial Prothromboplastin Time),"[1]; 0.25 mg/kg i.v., 0.5 h",46.7 ± 15.0
same,FIB (Fibrillation),"[1]; 0.25 mg/kg i.v., 0.5 h",2.09 ± 0.5
same,PT (Prothrombin Time),"[1]; 0.25 mg/kg i.v., 0.5 h",43.1 ± 17.8
same,RT (Clot Retraction Time),"[1]; 0.25 mg/kg i.v., 0.5 h",107.6 ± 33.7
same,TT (Thrombin Time),"[1]; 0.25 mg/kg i.v., 0.5 h",62.1 ± 15.8
same,APTT (Activated Partial Prothromboplastin Time),"[1]; 0.25 mg/kg i.v., 1.5 h",34.1 ± 10.3
same,FIB (Fibrillation),"[1]; 0.25 mg/kg i.v., 1.5 h",2.7 ± 0.8
same,PT (Prothrombin Time),"[1]; 0.25 mg/kg i.v., 1.5 h",34.6 ± 10.1
same,RT (Clot Retraction Time),"[1]; 0.25 mg/kg i.v., 1.5 h",78.6 ± 16
same,TT (Thrombin Time),"[1]; 0.25 mg/kg i.v., 1.5 h",49.6 ± 10.9
same,APTT (Activated Partial Prothromboplastin Time),"[1]; 75 mg/kg i.g., 1 h",30.2 ± 6.9
same,FIB (Fibrillation),"[1]; 75 mg/kg i.g., 1 h",4.4 ± 0.7
same,PT (Prothrombin Time),"[1]; 75 mg/kg i.g., 1 h",26.6 ± 5.5
same,RT (Clot Retraction Time),"[1]; 75 mg/kg i.g., 1 h",74.8 ± 16.6
same,TT (Thrombin Time),"[1]; 75 mg/kg i.g., 1 h",53.2 ± 10.0
same,APTT (Activated Partial Prothromboplastin Time),"[1]; 75 mg/kg i.g., 3.0 h",25.7 ± 4.0
same,FIB (Fibrillation),"[1]; 75 mg/kg i.g., 3.0 h",4.5 ± 0.6
same,PT (Prothrombin Time),"[1]; 75 mg/kg i.g., 3.0 h",26.6 ± 5.7
same,RT (Clot Retraction Time),"[1]; 75 mg/kg i.g., 3.0 h",77 ± 29.9
same,TT (Thrombin Time),"[1]; 75 mg/kg i.g., 3.0 h",42.5 ± 9.4
same,"RT, TT, PT, APTT, FIB indexes","[1]; i.g. 75 mg/kg, 1 h or 3 h",None of the indexes was significantly affected
same,"RT, TT, PT, APTT, FIB indexes","[1]; i.v. 0.125 mg/kg, first time point",RT alone was increased
same,"RT, TT, PT, APTT, FIB indexes","[1]; i.v. 0.125 mg/kg, second time point",none of the indexes were affected significantly
same,FIB,[1]; [4],reduced
same,"RT, TT, PT and APTT",[1]; [4],significantly increased
same,APTT and FIB,[1]; [5],no significantly affected
same,"RT, TT, PT",[1]; [5],"Only RT,TT,PT were increased"
same,Death rate (%),[2]; i.v. 7.83 mg/kg,0%
same,Number of deaths,[2]; i.v. 7.83 mg/kg,0
same,Number of death,"[2]; i.v. 7.83 mg/kg, ♀, 4-13 days after administration",0
same,Number of death,"[2]; i.v. 7.83 mg/kg, ♀, 1 day after administration",0
same,Number of death,"[2]; i.v. 7.83 mg/kg, ♀, 2 days after administration",0
same,Number of death,"[2]; i.v. 7.83 mg/kg, ♀, 3 days after administration",0
same,Number of death,"[2]; i.v. 7.83 mg/kg, ♀, day of administration",0
same,Number of death,"[2]; i.v. 7.83 mg/kg, ♂, 4-13 days after administration",0
same,Number of death,"[2]; i.v. 7.83 mg/kg, ♂, 1 day after administration",0
same,Number of death,"[2]; i.v. 7.83 mg/kg, ♂, 2 days after administration",0
same,Number of death,"[2]; i.v. 7.83 mg/kg, ♂, 3 days after administration",0
same,Number of death,"[2]; i.v. 7.83 mg/kg, ♂, day of administration",0
same,Death rate (%),[2]; i.v. 9.21 mg/kg,30%
same,Number of deaths,[2]; i.v. 9.21 mg/kg,3
same,Number of death,"[2]; i.v. 9.21 mg/kg, ♀, 4-13 days after administration",0
same,Number of death,"[2]; i.v. 9.21 mg/kg, ♀, 1 day after administration",0
same,Number of death,"[2]; i.v. 9.21 mg/kg, ♀, 2 days after administration",0
same,Number of death,"[2]; i.v. 9.21 mg/kg, ♀, 3 days after administration",0
same,Number of death,"[2]; i.v. 9.21 mg/kg, ♀, day of administration",2
same,Number of death,"[2]; i.v. 9.21 mg/kg, ♂, 4-13 days after administration",0
same,Number of death,"[2]; i.v. 9.21 mg/kg, ♂, 1 day after administration",0
same,Number of death,"[2]; i.v. 9.21 mg/kg, ♂, 2 days after administration",0
same,Number of death,"[2]; i.v. 9.21 mg/kg, ♂, 3 days after administration",0
same,Number of death,"[2]; i.v. 9.21 mg/kg, ♂, day of administration",1
same,Death rate (%),[2]; i.v. 10.84 mg/kg,50%
same,Number of deaths,[2]; i.v. 10.84 mg/kg,5
same,Number of death,"[2]; i.v. 10.84 mg/kg, ♀, 4-13 days after administration",0
same,Number of death,"[2]; i.v. 10.84 mg/kg, ♀, 1 day after administration",0
same,Number of death,"[2]; i.v. 10.84 mg/kg, ♀, 2 days after administration",0
same,Number of death,"[2]; i.v. 10.84 mg/kg, ♀, 3 days after administration",0
same,Number of death,"[2]; i.v. 10.84 mg/kg, ♀, day of administration",3
same,Number of death,"[2]; i.v. 10.84 mg/kg, ♂, 4-13 days after administration",0
same,Number of death,"[2]; i.v. 10.84 mg/kg, ♂, 1 day after administration",0
same,Number of death,"[2]; i.v. 10.84 mg/kg, ♂, 2 days after administration",0
same,Number of death,"[2]; i.v. 10.84 mg/kg, ♂, 3 days after administration",0
same,Number of death,"[2]; i.v. 10.84 mg/kg, ♂, day of administration",2
same,Death rate (%),[2]; i.v. 12.75 mg/kg,80%
same,Number of deaths,[2]; i.v. 12.75 mg/kg,8
same,Number of death,"[2]; i.v. 12.75 mg/kg, ♀, 4-13 days after administration",0
same,Number of death,"[2]; i.v. 12.75 mg/kg, ♀, 1 day after administration",0
same,Number of death,"[2]; i.v. 12.75 mg/kg, ♀, 2 days after administration",0
same,Number of death,"[2]; i.v. 12.75 mg/kg, ♀, 3 days after administration",0
same,Number of death,"[2]; i.v. 12.75 mg/kg, ♀, day of administration",4
same,Number of death,"[2]; i.v. 12.75 mg/kg, ♂, 4-13 days after administration",0
same,Number of death,"[2]; i.v. 12.75 mg/kg, ♂, 1 day after administration",0
same,Number of death,"[2]; i.v. 12.75 mg/kg, ♂, 2 days after administration",0
same,Number of death,"[2]; i.v. 12.75 mg/kg, ♂, 3 days after administration",0
same,Number of death,"[2]; i.v. 12.75 mg/kg, ♂, day of administration",4
same,Death rate (%),[2]; i.v. 15.00 mg/kg,90%
same,Number of deaths,[2]; i.v. 15.00 mg/kg,9
same,Number of death,"[2]; i.v. 15.00 mg/kg, ♀, 4-13 days after administration",0
same,Number of death,"[2]; i.v. 15.00 mg/kg, ♀, 1 day after administration",0
same,Number of death,"[2]; i.v. 15.00 mg/kg, ♀, 2 days after administration",0
same,Number of death,"[2]; i.v. 15.00 mg/kg, ♀, 3 days after administration",0
same,Number of death,"[2]; i.v. 15.00 mg/kg, ♀, day of administration",4
same,Number of death,"[2]; i.v. 15.00 mg/kg, ♂, 4-13 days after administration",0
same,Number of death,"[2]; i.v. 15.00 mg/kg, ♂, 1 day after administration",0
same,Number of death,"[2]; i.v. 15.00 mg/kg, ♂, 2 days after administration",0
same,Number of death,"[2]; i.v. 15.00 mg/kg, ♂, 3 days after administration",0
same,Number of death,"[2]; i.v. 15.00 mg/kg, ♂, day of administration",5
same,Thrombi (mg) Dry weight,[3]; 0.125 mg/kg i.v.,7.62 ± 6.18 mg
same,Thrombi (mg) Wet weight,[3]; 0.125 mg/kg i.v.,19.84 ± 12.17 mg
same,Thrombi (mg) Dry weight,[3]; 0.25 mg/kg i.v.,6.70 ± 4.34 mg
same,Thrombi (mg) Wet weight,[3]; 0.25 mg/kg i.v.,19.63 ± 12.02 mg
same,Thrombi (mg) Dry weight,[3]; 0.50 mg/kg i.v.,5.81 ± 3.25 mg
same,Thrombi (mg) Wet weight,[3]; 0.50 mg/kg i.v.,18.85 ± 8.61 mg
same,Thrombi (mg) Dry weight,[3]; 75 mg/kg intraduodenum,11.66 ± 4.23 mg
same,Thrombi (mg) Wet weight,[3]; 75 mg/kg intraduodenum,32.02 ± 19.34 mg
same,thrombi weights,"[3]; i.v. groups (0.125, 0.25, 0.5 mg/kg)",thrombi weights were decreased
same,thrombi weights,[3]; intra-duodenum 75 mg/kg,no obvious effect
